SMILES strings stand for the structures.

This series is described as follows: pH of pravastatin sodium crystals kept in normal air, nitrogen or carbon dioxide atmosphere. The class given is physicochemical. Here is the method:
Another observation was that carbon dioxide from the air can irreversibly bind to the active substance and can cause a drop of pH. This is illustrated by the following experiment: 5 g of pravastatin sodium were dissolved in 30 ml of methanol, the pH was adjusted to 10 with 3% aqueous solution of NaOH. 400 ml of ethylacetate were added and the crystals of pravastatin sodium were formed. Crystals were filtered and dried and then put into three different atmospheres: normal air, nitrogen atmosphere and carbon dioxide atmosphere. In normal air and in the nitrogen atmosphere the pH remained the same during a period of 24 hours (normal air: 9.2, nitrogen: 9.5), but in the carbon dioxide atmosphere the pH dropped in the first two minutes from 9.2 to 6.9. After 12 minutes the pH was 6.6 and after 1 hour the pH was 6.5. After that, the pH remained constant. The third observation is that a sufficient stabilization of the active substance is already obtained at a pH of at least 7.0, but a beneficially high stability is effected at a pH of at least 8.0. We have noticed that at a pH below 8 the formation of lactone has occured and also the amount of other impurities has increased. The presence of humidity in the air and a carbon dioxide-rich atmosphere makes the negative effect of a low pH even stronger. This is illustrated by the following experiment: Pravastatin was dissolved in different buffers with the pH in a range between 7 and 11 (F=phosphate, C=citrate, B=borate). The occurrence of pravastatin in lactone form and the formation of different degradation products (impurities) was measured after 1, 5, 13 and 28 days.

As to `CC[C@H](C)C(=O)O[C@H]1C[C@H](O)C=C2C=C[C@H](C)[C@H](CC[C@@H](O)C[C@@H](O)CC(=O)O)[C@H]21` [Pravastatin sodium, pravastatin sodium], the pH (carbon dioxide atmosphere, after 12 minutes) was found to be 6.6; the pH (carbon dioxide atmosphere, after 1 hour) amounted to 6.5; the pH (carbon dioxide atmosphere, after the first two minutes) is 6.9; the pH (carbon dioxide atmosphere, starting value) was 9.2; the pH (crystals in nitrogen atmosphere, remained the same during 24 hours) amounted to 9.5; the pH (crystals in normal air, remained the same during 24 hours) worked out at 9.2.

These data come from patent publication US20040072894A1, “Stable pharmaceutical formulation comprising a HMG-CoA reductase inhibitor” (priority 1998, published 2004).
